As usually defined, the EC50 is the concentration at which the effect is half-maximal. Usually Emax stands for the maximal effect, on the per cent scale that the assay sets. One may read the Cmax as the highest concentration seen after dosing. The term Tmax denotes the time from dosing to the highest level. One may read the AUC(0-inf) as the area under the concentration-time curve extrapolated to infinity.

Read-outs that look alike come from different tables or passages of the source.

The values that follow come from patent publication US20220296613A1, “FOOD-INDEPENDENT DOSING OF CV-10155 TO TREAT GABAA DISORDERS” (priority 2021, published 2022).

For one series, the system named is Forced swim test. As to the kind of experiment: Forced swim test - Depression. Type of series: in vivo, rodent. As to conditions: preclinical animal model.
For series [1] the following is noted: humans, cited from earlier work.
In the next series the target is α1β2γ2 GABAA receptors (Homo sapiens, UniProt P14867+P47870). The experiment in a line: Synchropatch electrophysiology, potentiation of synaptic GABAA receptors. The settings on record: for Emax: α1β2γ2 Synaptic receptors, Synchropatch electrophysiology, read-out: Emax - efficacy: % of potentiation. Type of series: cell-based.
For series [2] the following is noted: humans, cited from earlier work. The source holds these as a separate data set.
The conditions of series [3]: humans, cited from earlier work. This is another data set of the same source.
In another series the target is α4β3δ GABAA receptors (Homo sapiens, UniProt P28472+P48169). As to the kind of experiment: Synchropatch electrophysiology, potentiation of extra synaptic GABAA receptors. The class given is cell-based.
The conditions of series [4]: dog, in vivo, 1 mg/kg.
Where [5] appears, read: 30 mg, day 7 MAD (MTD), morning dosing.

Chain of α1β2γ2 GABAA receptors (P14867 28-456): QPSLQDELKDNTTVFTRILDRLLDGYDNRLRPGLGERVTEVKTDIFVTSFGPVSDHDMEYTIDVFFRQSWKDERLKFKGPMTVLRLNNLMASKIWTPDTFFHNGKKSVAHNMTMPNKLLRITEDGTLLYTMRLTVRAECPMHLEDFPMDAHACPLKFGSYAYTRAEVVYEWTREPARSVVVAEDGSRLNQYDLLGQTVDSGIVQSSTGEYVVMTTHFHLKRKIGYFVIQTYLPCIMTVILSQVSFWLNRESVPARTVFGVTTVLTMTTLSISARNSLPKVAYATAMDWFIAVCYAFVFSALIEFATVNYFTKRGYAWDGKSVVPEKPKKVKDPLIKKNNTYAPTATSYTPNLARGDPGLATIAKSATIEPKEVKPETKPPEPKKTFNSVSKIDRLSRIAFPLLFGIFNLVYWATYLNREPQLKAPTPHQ
Chain of α1β2γ2 GABAA receptors (P47870 25-512 limits assumed): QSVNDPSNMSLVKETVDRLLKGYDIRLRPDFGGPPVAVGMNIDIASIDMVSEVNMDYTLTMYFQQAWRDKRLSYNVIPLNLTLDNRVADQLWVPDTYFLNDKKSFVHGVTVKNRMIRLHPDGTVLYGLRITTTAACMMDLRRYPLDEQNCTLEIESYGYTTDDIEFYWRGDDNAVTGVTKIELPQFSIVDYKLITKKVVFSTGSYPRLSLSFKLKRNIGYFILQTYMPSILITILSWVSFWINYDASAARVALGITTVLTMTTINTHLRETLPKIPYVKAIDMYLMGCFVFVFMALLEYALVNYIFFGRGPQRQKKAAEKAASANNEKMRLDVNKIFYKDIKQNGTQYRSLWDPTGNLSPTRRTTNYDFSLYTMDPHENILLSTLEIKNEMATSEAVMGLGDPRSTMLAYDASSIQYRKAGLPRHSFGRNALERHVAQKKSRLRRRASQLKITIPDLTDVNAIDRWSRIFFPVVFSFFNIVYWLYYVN
Chain of α1β2γ2 GABAA receptors (P18507 40-475 partner): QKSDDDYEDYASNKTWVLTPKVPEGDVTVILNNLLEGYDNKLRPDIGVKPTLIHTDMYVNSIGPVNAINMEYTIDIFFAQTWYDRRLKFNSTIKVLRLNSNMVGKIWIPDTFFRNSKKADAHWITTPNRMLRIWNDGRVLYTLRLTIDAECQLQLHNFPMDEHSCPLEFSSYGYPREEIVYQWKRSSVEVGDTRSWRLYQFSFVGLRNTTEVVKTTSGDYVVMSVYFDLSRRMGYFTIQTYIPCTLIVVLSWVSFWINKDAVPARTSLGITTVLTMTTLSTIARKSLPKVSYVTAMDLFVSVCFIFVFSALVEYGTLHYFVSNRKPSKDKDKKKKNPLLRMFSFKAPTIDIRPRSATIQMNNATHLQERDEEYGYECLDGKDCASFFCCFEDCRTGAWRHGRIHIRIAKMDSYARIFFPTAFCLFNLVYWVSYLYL
Chain of α4β3δ GABAA receptors (P48169 36-554): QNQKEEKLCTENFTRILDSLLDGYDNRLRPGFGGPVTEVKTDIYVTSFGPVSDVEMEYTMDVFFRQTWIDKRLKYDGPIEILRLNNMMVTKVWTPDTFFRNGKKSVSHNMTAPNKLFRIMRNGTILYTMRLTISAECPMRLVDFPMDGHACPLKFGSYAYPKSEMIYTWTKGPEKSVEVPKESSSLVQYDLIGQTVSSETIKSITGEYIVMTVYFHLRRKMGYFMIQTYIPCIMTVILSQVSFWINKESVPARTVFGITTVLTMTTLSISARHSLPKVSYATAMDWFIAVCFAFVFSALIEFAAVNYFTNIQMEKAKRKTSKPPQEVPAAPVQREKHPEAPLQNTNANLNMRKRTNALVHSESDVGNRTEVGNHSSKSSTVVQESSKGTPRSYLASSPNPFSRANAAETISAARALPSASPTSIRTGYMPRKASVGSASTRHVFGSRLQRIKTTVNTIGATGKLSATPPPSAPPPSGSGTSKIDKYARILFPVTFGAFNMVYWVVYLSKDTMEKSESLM
Chain of α4β3δ GABAA receptors (P28472 26-473): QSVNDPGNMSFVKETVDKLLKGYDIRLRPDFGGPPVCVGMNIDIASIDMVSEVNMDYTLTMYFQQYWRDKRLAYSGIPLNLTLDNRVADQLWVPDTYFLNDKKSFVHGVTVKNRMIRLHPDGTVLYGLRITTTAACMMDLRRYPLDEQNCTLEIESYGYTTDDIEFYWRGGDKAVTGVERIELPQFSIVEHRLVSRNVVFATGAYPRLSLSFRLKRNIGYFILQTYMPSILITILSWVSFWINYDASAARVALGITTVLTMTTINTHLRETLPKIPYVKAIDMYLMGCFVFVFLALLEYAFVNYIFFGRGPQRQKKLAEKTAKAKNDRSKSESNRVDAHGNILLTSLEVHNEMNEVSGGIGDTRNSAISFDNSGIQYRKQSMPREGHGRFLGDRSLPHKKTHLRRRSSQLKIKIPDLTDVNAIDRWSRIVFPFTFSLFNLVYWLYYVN
Chain of α4β3δ GABAA receptors (O14764 25-452 partner): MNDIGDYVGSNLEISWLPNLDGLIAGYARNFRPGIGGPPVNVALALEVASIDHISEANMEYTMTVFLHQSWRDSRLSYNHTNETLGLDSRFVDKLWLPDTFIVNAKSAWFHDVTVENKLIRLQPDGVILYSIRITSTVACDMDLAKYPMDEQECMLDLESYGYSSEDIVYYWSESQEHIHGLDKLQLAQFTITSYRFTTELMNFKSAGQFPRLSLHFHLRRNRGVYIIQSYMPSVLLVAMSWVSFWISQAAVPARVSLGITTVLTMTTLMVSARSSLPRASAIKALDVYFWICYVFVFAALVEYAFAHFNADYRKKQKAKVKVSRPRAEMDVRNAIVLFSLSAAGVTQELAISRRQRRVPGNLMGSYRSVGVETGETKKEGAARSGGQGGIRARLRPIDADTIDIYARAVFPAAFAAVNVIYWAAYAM

As for `C[C@@]1(O)CC[C@H]2[C@H](CC[C@@H]3[C@@H]2CC[C@]2(C)[C@@H](C(=O)Cn4cc(C#N)cn4)CC[C@@H]32)C1` [Sage-217], the “Forced swim test - Depression: doses tested, * = significantly efficacious dose” value with Forced swim test is 1 - 3* mg/kg. In series [1] (20 mg (n-188)), the “Any adverse event, %” value is listed as 50.0%; the “Diarrhea, %” value was 5.9%; the “Dizziness, %” value is on record as 7.4%; the “Fatigue, %” value is on record as 1.6%. In addition, in series [1] (20 mg (n-188)), the “Headache, %” value was 11.2%; the “Nausea, %” value is 5.3%; the “Sedation, %” value is given as 5.9%; the “Somnolence, %” value is on record as 5.9%. Moreover, in series [1] (30 mg (n-192)), the “Any adverse event, %” value is given as 54.2%; the “Diarrhea, %” value is reported as 6.3%; the “Dizziness, %” value was 5.7%; the “Fatigue, %” value is on record as 6.8%. Moreover, in series [1] (30 mg (n-192)), the “Headache, %” value is on record as 6.3%; the “Nausea, %” value is 3.6%; the “Sedation, %” value was 4.7%; the “Somnolence, %” value is 6.8%. For the same compound, at α1β2γ2 GABAA receptors, the EC50 is 189 nM and the maximum response (Emax) was 1000%. Besides, the “ratio of Cmax/trough on day 7” value in series [2] (30 mg daily in the evening in a fed state) is 5.88. Besides, in series [2] (setting [5]), the AUC0_inf was 833.2 h*ng/m1, the highest concentration (Cmax) is 115.2 ng/mL, the Cmin was 12.46 ng/mL and the “Ratio (Cmax/Cmin)” value was 9.24. Moreover, in series [2] (setting [5]), the “T1/2” value is given as 15.27 h and the Tmax is reported as 1 h. Besides, the “MTD, multiple ascending dose (MAD)” value in series [2] (morning dosing) is given as “SAGE-217 30mg”. Besides, in series [3] (55 mg SAD MTD), the AUC(0-inf) was 1633 ng·h/mL, the maximum concentration (Cmax) is 149.9 ng/mL, the T1/2 is 17.02 h and the Tmax is listed as 1.24 h. The “MTD, single ascending dose (SAD)” value in series [3] is recorded as “SAGE-217 55 mg SAD MTD”. In addition, the EC50 at α4β3δ GABAA receptors worked out at 148 nM.

As for `CC(=O)[C@H]1CC[C@H]2[C@@H]3CC[C@H]4C[C@](C)(O)CC[C@]4(C)[C@H]3CC[C@]12C` [Ganaxolone, ganaxolone], on α1β2γ2 GABAA receptors, the EC50 turned out to be 90 nM and the Emax was 745%. In addition, the EC50 at α4β3δ GABAA receptors turned out to be 213 nM.

In series [4] (iv), `C[C@@]1(O)CC[C@@]2(C)[C@@H](CC[C@@H]3[C@@H]2CC[C@]2(C)[C@@H](C(=O)Cn4cc(C#N)cn4)CC[C@@H]32)C1` [CV-10155 (30% HPbCD)] displayed a Cmax of 1732 ng/mL and a T½ of 13.93 h. In series [4] (po), the Cmax was found to be 510 ng/mL, the Tmax came to 0.75 h and the T½ is 13.62 h.

As to `C[C@@]1(O)CC[C@@]2(C)[C@@H](CC[C@@H]3[C@@H]2CC[C@]2(C)[C@@H](C(=O)Cn4cc(C#N)cn4)CC[C@@H]32)C1` [CV-10155 (Labrosol)], in series [4] (po), the maximum concentration (Cmax) came to 266 ng/mL, the Tmax was 0.625 h and the T½ is 18.93 h.
